How the values were obtained:
MIAPaca-2 induced tumor = test: Antagonism of MIAPaca-2 induced tumor in nude mice; format: in vivo; details: for mean tumor area: p.o daily for 30 days, control 33.13 mm^2
Protocol: This study was carried out with 20 Male Nude Mice. Weighing of Nude Mice were taken initially before inoculation of cell line and made into four groups.
Group-I: Positive control (5 Male)
Group-II: COMPOUND 2 (5 Male) (200 mg/kg, p.o)
Group-III: COMPOUND 1 (5 Male) (50 mg/kg, p.o)
Group-IV: Standard (5 Male) (Erlotinib hydrochloride—50 mg/kg, p.o & Gemcitabine hydrochloride—120 mg/kg, i.p.)
The cell line was inoculated to Nude Mice subcutaneously to the right hind limb flank at a strength of 1×10^7 cells/0.2 ml. […] The tumor volume was measured using the formula ½1×w^2 (l=length of tumor & w=width of tumor). When the mean tumor volume was recorded above 400 mm^3, the treatment with the above drugs were started. The above drugs were administered orally daily for 30 days, except Gemcitabine hydrochloride was administered on 1st and 3rd day of each week. Weight of Nude Mice was taken daily before dosing and tumor measurement was done on alternative days using digital Vernier caliper. Surviving animals were sacrificed after the dosing is complete for 30 days and organs (tumor with skin and pancreas) were collected.
Mice dead during experimental schedule, the tumor with skin and pancreas were collected and tumor with skin was stored in 10% buffered formalin and pancreas were stored in Bouin's solution. All the organs after collection were sent for histopathology.

[1] = test system: NCI-H292 induced tumor (Erlotinib resistant lung cancer); test: Antagonism of NCI-H292 induced tumor in nude mice (histopathology); format: in vivo; details: 50 mg/kg for 15 days; histopathology (4/5); positive control tumor present in all 5 animals
Protocol: The study was carried out with 15 Nude Mice (8 Male+7 Female).Weighing of Nude Mice were taken initially before inoculation of cell line and made into groups. Grouping as follows:
Group I: Positive control (4 Male+1 Female)
The cell line was inoculated to Nude Mice subcutaneously to the right hind limb flank at a strength of 6.25×10^5 cells/0.2 ml. […] The tumor volume was measured using the formula […] (l=length of tumor & w=width of tumor).When the mean tumor volume was recorded above 400 mm^3, the treatment with the above drugs will be started. […] Weight of Nude Mice Was taken daily before dosing and tumor measurement was done on alternative days using digital Vernier caliper. […] Mice dead during experimental schedule, the tumor with skin and liver were collected and stored in 10% buffered formalin .All the organs after collection were sent for histopathology.

[2] = MTD (Maximum Tolerated Dose) study in mice, OECD procedure; details: both sexes, mouse, in vivo, oral; p.o, single dose, 14 days observation, Swiss Albino mice
Protocol: The method was carried out as per OECD procedure. The study was carried out using 5 (2 Male+3 Female) Swiss Albino Mice weighing between 18-30 gms. All the animals were fasted for 3 hrs prior to the oral administration of the drug. After preparing the sample administer immediately to their body all the animals according weight. […] At the end of 14 days all the surviving animals were autopsied and stomach were cut opened and observed for absorption of the drug through the GIT. The result is given in FIG. 1. • COMPOUND 2: MTD>2000 mg.kg, p.o (Single dose 14 days observation) • COMPOUND 1: MTD=500 mg/kg, p.o (Single dose 14 days observation) b. Antagonism of MIAPaca—2 Induced Tumor in Nude Mice: […]

[3] = 200 mg/kg, p.o, 5 mice, control 40%

**Q.** What does the source list for Cc1c(CN2CCN(S(C)(=O)=O)CC2)sc2c(N3CCOCC3)nc(-c3cnc(N)nc3)cc12 [COMPOUND 1, 5-[3-methyl-2-[(4-methylsulfonylpiperazin-1-yl)methyl]-7-morpholino-thieno[2,3-c]pyridin-5-yl]pyrimidin-2-amine]?
**A.** mean tumor area (MIAPaca-2 induced tumor; 50 mg/kg): 8.60 mm^2; remaining tumors showing no much activity (no invasion) (MIAPaca-2 induced tumor; 50 mg/kg, p.o, 5 mice): 80%; tumors showing invasion into underlying muscle (MIAPaca-2 induced tumor; 50 mg/kg, p.o, 5 mice): 20%; clearance of tumor, animals [1]: 80%; MTD at 14 days [2]: 500 mg/kg

**Q.** With CS(=O)(=O)N1CCN(Cc2cc3cc(-c4cnc(N)nc4)nc(N4CCOCC4)c3s2)CC1 [COMPOUND 2, 5-[2-[(4-methylsulfonylpiperazin-1-yl)methyl]-7-morpholino-thieno[2,3-c]pyridin-5-yl]pyrimidin-2-amine] as the compound, how does the mean tumor area (MIAPaca-2 induced tumor; 200 mg/kg) read?
**A.** Its mean tumor area is 10.90 mm^2.

**Q.** And the “tumors localized, no tumor invasion seen” value (MIAPaca-2 induced tumor; [3])?
**A.** Its value is 60%.

**Q.** What about the “tumors showing vascular invasion” value (MIAPaca-2 induced tumor; [3]) of the same compound?
**A.** Its value is 40%.

**Q.** What about the MTD at 14 days [2] of the same compound?
**A.** Its MTD at 14 days is > 2000 mg/kg.
